Results: patent US9598434B2, “Benzazepine compound” (Astellas Pharma Inc., priority 2010, dated 2017)
Like-named read-outs stand apart in the source and are kept apart here. Each block holds one compound with its values, some of them ahead of it.

Assays:
[1] = target: T1, human 5-HT2C receptor (Homo sapiens, UniProt P28335); experiment: Evaluation of 5-HT2C receptor agonist activity (intracellular calcium increase, FLIPR, CHO cells stably expressing the receptor); format: cell-based; conditions: for Emax: read-out: 5-HT2C agonist activity Emax
T1 construct: expressed in transfected cells
T1 sequence (P28335 33-458): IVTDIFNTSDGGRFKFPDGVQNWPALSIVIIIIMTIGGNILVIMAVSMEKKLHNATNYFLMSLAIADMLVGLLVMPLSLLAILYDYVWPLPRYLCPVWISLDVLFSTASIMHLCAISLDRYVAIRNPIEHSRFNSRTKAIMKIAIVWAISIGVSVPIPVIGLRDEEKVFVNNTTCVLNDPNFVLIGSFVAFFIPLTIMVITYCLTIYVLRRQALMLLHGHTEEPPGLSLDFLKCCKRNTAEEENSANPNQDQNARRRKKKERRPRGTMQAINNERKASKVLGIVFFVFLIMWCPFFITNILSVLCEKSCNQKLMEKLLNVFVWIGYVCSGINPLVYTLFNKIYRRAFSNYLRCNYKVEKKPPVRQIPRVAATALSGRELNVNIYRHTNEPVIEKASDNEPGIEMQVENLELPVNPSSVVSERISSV
Experimental: The agonist activity of the compound of the formula (I) on the 5-HT2C receptor was confirmed by the method shown below.
The human 5-HT2C receptor agonist activity was evaluated by measuring the increase of the ligand-dependent intracellular calcium concentration. CHO cells which stably expressing a human 5-HT2C receptor were used. The receptor-expressing cells were prepared by transfecting the genes of the human 5-HT2C receptor (Accession numbers: AF498983 (5-HT2C)) into CHO cells (dihydrofolic acid-deficient strain, DS Pharma Biomedical Co., Ltd.)) using a pEF-BOS vector (Nucleic Acids Research, vol. 18, No. 17). After transcription, the 5-HT2C is known to be subjected to RNA editing to cause differences in three kinds of amino acids, resulting in fourteen receptor isoforms. Among them, cells stably expressing an INI type of 5-HT2C receptor which had not been subjected to editing were used. Cells used for evaluation were cultured in a 10% fetal bovine serum (FBS)-containing medium (trade name: α-MEM, Invitrogen) at 37° C. and 5% carbon dioxide. On the day before the evaluation, the cells were suspended in a serum-free medium (trade name: CD-CHO, Invitrogen) containing 8 mM L-glutamine (trade name: L-glutamine 200 mM, Invitrogen, added to the medium at a final concentration of 8 mM) and dispensed into a 96-well poly-D-lysine-coated plate (trade name: Biocoat PDL96W Black/Clear, Japan Becton, Dickinson and Company)) at 4×10^4 cells/well and cultured at 37° C. and 5% carbon dioxide overnight. A solution including a washing solution (mixture of Hank's Balanced Salt Solution (HBSS)-sodium hydroxide (NaOH), 20 mM 2-[4-(2-hydroxyethyl)-1-piperazinyl]ethanesulfonic acid (HEPES)-sodium hydroxide (NaOH), 2.5 mM probenecid, and 0.1% bovine serum albumin (BSA)), and a 4 μM fluorescent reagent (trade name: Fluo4-AM, Dojindo Co., Ltd.) was used as a loading buffer and the medium of the 96-well plate which had been cultured overnight was replaced with a loading buffer. After leaving to stand (with light-shielding) at room temperature for 3 hours, the cells were washed with a plate washer (trade name: ELx405, BioTek Instruments, Inc.) in which a washing solution had been set up. The plates of the washed cells were set up in a system for measuring a calcium (Ca) concentration in a cell (trade name: FLIPR, Molecular Devices, Inc.). In this device, a test compound that had been dissolved in dimethyl sulfoxide and diluted in the washing solution at a predetermined concentration was added and set up to measure a change in the Ca concentrations in a cell. The difference between a maximum value and a minimum value in the change of the intracellular Ca concentration was determined and kept as measurement data.
Taking the maximum reaction of the 5-HT (agonist action with addition of 5-HT 10 μM) as 100% and the reaction of a solvent alone as 0%, the efficacy (Emax (%)) and potency (EC50 (nM)) of the present invention compound to the maximum reaction of the 5-HT were calculated with a logistic regression method.

[2] = tested on: Hartley female guinea pigs; experiment: Measurement of external urethral sphincter electromyography; format: in vivo, guinea pig; conditions: Cavia porcellus; intravenous administration at 3 mg/kg; urethane-anesthetized guinea pigs; activity after solvent taken as 100%; read-out: external urethral sphincter electromyography activity
Source text: The activating action of the compound of the formula (I) on the urethral sphincter electromyography was confirmed with the method shown below.
Hartley female guinea pigs with a body weight of 250 to 350 g were anesthetized with urethane (Sigma). The guinea pigs were fixed in a supine position and catheters (PE-50; Clay Adams) for administration of test compounds were inserted into the jugular vein. Further, a catheters (PE-160; Clay Adams), for an infusion of physiological saline into bladder and measurement of the intravesical pressure, were inserted through an incision into the dome of the bladder. Further, in order to measure the external urethral sphincter electromyography, two electrodes were inserted into both the left and right sides of the urethral opening to the urethral sphincter. The electrodes for measuring base voltages were placed under the skin of the hind part. The bladder catheter was branched over a three-way stopcock, and one was connected with a 50 mL syringe (Terumo) fixed to an infusion pump (Terumo). The other was connected to a pressure transducer (DX-100; Nihon Kohden Corporation) to transfer the signal of the transducer through an amplifier (AP-630G; Nihon Kohden Corporation) and a data acquisition system (PowerLab; AD Instruments) to a computer and record on a hard disk. The electrodes for electromyography measurement were connected to a control unit (JB-101J; Nihon Kohden Corporation) to transfer the signal through an amplifier (AP-651J; Nihon Kohden Corporation) and a data acquisition system (PowerLab; AD Instruments) to a computer and record on a hard disk. Further, the data were analyzed on the computer using a software (Chart; AD Instruments). […] The electromyography activity was analyzed by taking the lowest potential amplitude as a standard during the stabilization period and using the firing frequency over the standard amplitude as an indicator. At internals between the respective urinations (urine filling phase), the activity of the urethral sphincter electromyography was analyzed and its average value was calculated. After the stabilization period, the solvent and the test compound were administered at an increased dose at an interval of 40 minutes through the catheter placed into the jugular vein. The urethral sphincter electromyography activity after the administration of the solvent was taken as 100% and the urethral sphincter electromyography activity after the administration of the test compound was denoted as a percentage (%) of the electromyography activity after the administration of the solvent.

[3] = CHO cells stably expressing INI type human 5-HT2C receptor, intracellular Ca increase, logistic regression, read-out: 5-HT2C agonist activity EC50
[4] = maximum reaction of 5-HT (10 μM) taken as 100%, solvent alone as 0%, CHO cells expressing INI type human 5-HT2C receptor

SMILES: Clc1c2c(cc3c1N(CC1CCCC1)CCC3)CCNCC2 [Example 45]
- EC50 [1]: 3.9 nM
- Emax ([1]; CHO): 107%
- melting point: 151 to 153 °C

SMILES: COCCN1CCOc2cc3c(c(Br)c21)CCNCC3 [Example 135]
- EC50 [1, 3]: 2.9 nM
- Emax ([1]; CHO): 112%
- response vs control in vivo at 3 mg/kg [2]: ≥ 200%

SMILES: Fc1ccc(F)c(CN2CCOc3cc4c(c(C5CC5)c32)CCNCC4)c1 [Example 283]
- EC50 [1, 3]: 1.7 nM
- Emax ([1]; CHO): 90%
- response vs control in vivo at 3 mg/kg [2]: ≥ 200%

SMILES: CC(C)OCCN1CCOc2cc3c(cc21)CCNCC3 [Example 76]
- EC50 [1, 3]: 1.9 nM
- Emax ([1]; CHO): 116%

SMILES: COCCN1CCCc2cc3c(c(C4CC4)c21)CCNCC3 [Example 81]
- EC50 [1, 3]: 0.84 nM
- Emax ([1]; CHO): 114%
- response vs control in vivo at 3 mg/kg [2]: ≥ 200%

SMILES: CC(C)C(=O)N1CCCc2cc3c(c(Cl)c21)CCNCC3.Cl [Example 21]
- EC50 [1, 3]: 0.81 nM
- Emax ([1]; CHO): 101%
- melting point: 245 to 249 °C

SMILES: Clc1c2c(cc3c1N(CC1CCC1)CCC3)CCNCC2 [Example 42]
- EC50 [1]: 1.9 nM
- Emax ([1]; CHO): 97%
- melting point: 141 to 143 °C

SMILES: CCc1c2c(cc3c1N(CCOC)CCO3)CCNCC2.O=C(O)/C=C/C(=O)O [Example 98]
- EC50 [1, 3]: 4.4 nM
- Emax ([1]; CHO): 107%
- melting point: 159 to 163 °C

SMILES: COCC1(CN2CCOc3cc4c(c(C5CC5)c32)CCNCC4)CC1 [Example 105]
- EC50 [1, 3]: 8 nM
- Emax ([1]; CHO): 111%
- melting point: 166 to 167 °C

SMILES: COc1cccc(CN2CCOc3cc4c(c(C5CC5)c32)CCNCC4)c1 [Example 299]
- EC50 [1, 3]: 1 nM
- Emax ([1]; CHO): 98%
- response vs control in vivo at 3 mg/kg [2]: ≥ 200%

SMILES: CC(=O)N1CCCc2cc3c(cc21)CCNCC3.O=C(O)/C=C/C(=O)O [Example 33]
- EC50 [1, 3]: 32.9 nM
- Emax ([1]; CHO): 94%
- melting point: 159 to 162 °C

SMILES: CO[C@H](CF)CN1CCOc2cc3c(c(C4CC4)c21)CCNCC3 [Example 287]
- EC50 [1, 3]: 1 nM
- Emax ([1]; CHO): 97%
- response vs control in vivo at 3 mg/kg [2]: ≥ 200%

SMILES: COCCN1CCOc2cc3c(c(C4CC4)c21)CCNCC3 [Example 88]
- EC50 [1, 3]: 1.1 nM
- Emax ([1]; CHO): 105%
- response vs control in vivo at 3 mg/kg [2]: ≥ 200%

SMILES: CN1CCOc2cc3c(c(Br)c21)CCNCC3.O=C(O)/C=C/C(=O)O [Example 35]
- EC50 [1]: 0.42 nM
- Emax ([1]; CHO): 100%
- melting point: 200 to 204 °C

SMILES: COCCN1CCOc2cc3c(c(C)c21)CCNCC3.O=C(O)/C=C/C(=O)O [Example 90]
- EC50 [1, 3]: 8.3 nM
- Emax ([1]; CHO): 113%
- melting point: 166 to 170 °C

- EC50 [1, 3]: 3.2 nM
- Emax [1, 4]: 112%
- melting point: 179 to 182 °C
SMILES: c1c2c(cc3c1OCCN3CC1CC1)CCNCC2 [Example 56]

- EC50 [1, 3]: 4 nM
- Emax [1, 4]: 117%
SMILES: CC(C)CN1CCOc2cc3c(cc21)CCNCC3 [Example 58]

SMILES: CCOC(=O)N1CCCc2cc3c(c(C)c21)CCNCC3.O=C(O)C(=O)O [Example 108]
- EC50 [1, 3]: 5.9 nM
- Emax ([1]; CHO): 106%
- melting point: 185 to 186 °C

SMILES: CC(C)CN1CCCc2cc3c(cc21)CCNCC3 [Example 38]
- EC50 [1, 3]: 2.1 nM
- Emax ([1]; CHO): 94%
- response vs control in vivo at 3 mg/kg [2]: ≥ 200%

SMILES: CCN1CCCc2cc3c(c(Cl)c21)CCNCC3.Cl [Example 16]
- EC50 [1]: 1.5 nM
- Emax ([1]; CHO): 109%
- melting point: 221 to 223 °C

- EC50 [1, 3]: 12 nM
- Emax [1, 4]: 97%
- melting point: 193 to 197 °C
SMILES: c1c2c(c(C3CC3)c3c1OCCN3)CCNCC2 [Example 36]

SMILES: CC(C)CN1CCCc2cc3c(c(Cl)c21)CCNCC3.O=C(O)/C=C/C(=O)O [Example 2, 11-chloro-1-isobutyl-2,3,4,6,7,8,9,10-octahydro-1H-azepino[4,5-g]quinoline monofumarate]
- EC50 [1, 3]: 0.64 nM
- Emax ([1]; CHO): 99%
- melting point: 159 to 163 °C

SMILES: O=C(O)/C=C/C(=O)O.c1ccc(N2CCOc3cc4c(cc32)CCNCC4)cc1 [Example 92]
- EC50 [1, 3]: 79 nM
- Emax ([1]; CHO): 84%
- melting point: 220 to 222 °C

SMILES: CC1CNc2cc3c(cc2O1)CCNCC3 (stereo not shown) [Example 50]
- EC50 [1]: 68 nM
- Emax ([1]; CHO): 98%
- melting point: 193 to 194 °C

SMILES: COCCN1CCOc2cc3c(c(-c4cccc(C)c4)c21)CCNCC3.O=C(O)/C=C/C(=O)O [Example 78]
- EC50 [1, 3]: 36 nM
- Emax ([1]; CHO): 98%
- melting point: 173 to 176 °C

SMILES: CCOCc1cc(F)c(OCCN2CCOc3cc4c(c(C5CC5)c32)CCNCC4)c(F)c1.O=C(O)/C=C/C(=O)O
- melting point: 138 to 139 °C

SMILES: COCCN1C(=O)CCc2cc3c(cc21)CCNCC3.O=C(O)/C=C/C(=O)O
- melting point: 164 to 166 °C

SMILES: COc1ccc(Cl)cc1CN1CCOc2cc3c(c(C4CC4)c21)CCNCC3.O=C(O)/C=C/C(=O)O
- melting point: 193 to 196 °C

SMILES: O=C(O)C(=O)O.O=C(OCCc1ccccc1)N1CCCc2cc3c(c(Br)c21)CCNCC3
- melting point: 176 to 177 °C

SMILES: COC[C@H](CN1CCOc2cc3c(c(C4CC4)c21)CCNCC3)OC.O=C(O)/C=C/C(=O)O
- melting point: 150 to 154 °C

SMILES: COCCN1CCOc2cc3c(c(C=C(C)C)c21)CCNCC3.O=C(O)/C=C/C(=O)O
- melting point: 173 to 176 °C

SMILES: CCCN1CCOc2cc3c(c(C4CC4)c21)CCNCC3.O=C(O)/C=C/C(=O)O
- melting point: 138 to 141 °C

SMILES: COC[C@@H](CN1CCOc2cc3c(c(C4CC4)c21)CCNCC3)OC.O=C(O)/C=C/C(=O)O
- melting point: 156 to 158 °C

SMILES: CC(Cc1ccccc1)OC(=O)N1CCOc2cc3c(cc21)CCNCC3.O=C(O)CCC(=O)O (stereo not shown)
- melting point: 85 to 87 °C

- melting point: 129 to 132 °C
SMILES: COCC(C)CN1CCOc2cc3c(cc21)CCNCC3 (stereo not shown) [Example 318]

SMILES: COCCN1CCOc2c1cc1c(c2Cl)CCNCC1.O=C(O)CCC(=O)O
- melting point: 139 to 141 °C

SMILES: O=C(O)CCC(=O)O.O=C(OCCc1ccccc1)N1CCOc2c1cc1c(c2C2CC2)CCNCC1
- melting point: 142 to 144 °C
